“Also recorded” adds a separate entry of the source.
Assays:
[1] = tested on: cultured bovine blood-brain barrier endothelial cells; test: Intracellular sodium (sodium green fluorescence) in cultured blood-brain barrier cells under simulated ischemia-reperfusion; format: cell-based; details: 100 μM; ischemia 90 mins, reperfusion 30 mins
Description: FIG. 3 is a bar graph of data showing that when cerebral capillary endothelial cells are exposed to ischemic conditions, intracellular sodium concentration increases and remains elevated during reperfusion; the elevation in intracellular sodium is prevented by pharmacological inhibition of the Na/H antiporter. Cultured bovine blood-brain barrier cells were exposed to conditions simulating ischemia and reperfusion, by incubating in 95% N2/5% CO2 without glucose (90 mins) at pH 6.8, followed by room air/5% CO2 with 5.6 mM glucose (30 mins) at pH 7.4, respectively. […] The rise in intracellular sodium observed during reperfusion was prevented by inhibiting Na/H exchange (100 μM dimethylamiloride, DMA). *P<0.05. Values are mean±SD. […] Intracellular sodium was measured with fluorescent imaging, using sodium green. […]
Cultured bovine blood-brain barrier endothelial cells were exposed to conditions simulating ischemia and reperfusion as described in Example 2. Sodium fluorescence is measured in cultured bovine blood-brain barrier endothelial cells under the following conditions: 1) control (120 minutes), 2) simulated ischemia (120 minutes), 3) simulated ischemia (90 minutes) followed by simulated reperfusion (30 minutes), 4) simulated ischemia/reperfusion (90/30 minutes), in the presence of an inhibitor (dimethylamiloride, 100 μM) of Na/H exchange. […]

[2] = tested on: caspase 3 activity in cultured bovine blood-brain barrier endothelial cells; test: Caspase 3 activity in cultured blood-brain barrier cells under simulated ischemia-reperfusion; format: cell-based; details: 100 μM; 30 mins ischemia, 24 hours reperfusion; P<0.05 from I/Rep
Source text: FIG. 6 is a bar graph of data showing that ischemia followed by reperfusion of cultured cerebral capillary endothelial cells results in an increase of caspase 3 activity that is inhibited by an inhibitor of Na/H exchange. Caspase 3 activity is expressed in cultured blood-brain barrier cells exposed to conditions simulating ischemia-reperfusion. […] I/Rep is ischemia plus reperfusion; I/R Na inh is ischemia-reperfusion with inhibitor; I/R Cp inh is ischemia-reperfusion with a specific caspase inhibitor. Values are mean±SD for 3 observations.
Cultured blood-brain barrier cells can be exposed to conditions simulating ischemia and reperfusion, by a method similar to that reported in the literature (25). The precise composition of the incubation medium varies, depending upon the experimental protocols. In general, however, cells are incubated at 37° C. first in an ischemic medium (without glucose, pH 6.8) equilibrated with an atmosphere of 95% N2 and 5% CO2, followed by simulated reperfusion in a control medium (5.6 mM glucose, pH 7.4) equilibrated with room air and 5% CO2. […]
Caspase 3 activity was measured in cultured bovine blood-brain barrier endothelial cells under control conditions (24.5 hours), simulated ischemia (24.5 hours), or ischemia (0.5 hours) followed by reperfusion (24 hours, I/Rep) as described in Example 2. […]

[3] = tested on: cultured bovine blood-brain barrier endothelial cells; test: Intracellular calcium (Fluo-4 fluorescence) in cultured blood-brain barrier cells under simulated ischemia-reperfusion; format: cell-based; details: 100 μM DMA (Na/H antiport inhibition), listed as DMA
Description: FIG. 4 is a bar graph of data showing that when cerebral capillary endothelial cells are exposed to ischemic conditions, intracellular calcium concentration increases and remains elevated during reperfusion; the elevation in intracellular calcium is prevented by pharmacological inhibition of the Na/H antiporter. Cultured bovine blood-brain barrier cells were treated as described above (FIG. 2). […] The rise in intracellular calcium observed during reperfusion was prevented by inhibiting Na/H antiport (100 μM DMA). *P<0.05 compared to control. +P<0.05 compared to reperfusion. Values are mean±SD. Intracellular calcium was measured with fluorescent imaging, using Fluo-4.
FIG. 5 is a bar graph of data showing that when cerebral capillary endothelial cells are exposed to ischemic conditions, intracellular calcium concentration increases and remains elevated during reperfusion; the elevation in intracellular calcium is prevented by pharmacological inhibition of reverse movement of the Na/Ca exchanger. Cultured bovine blood-brain barrier cells were treated as described above (FIG. 2). […] The rise in intracellular calcium observed during reperfusion was prevented by inhibiting reverse movement of Na/Ca exchange (20 μM KB-R7943). *P<0.05 compared to control. +P<0.05 compared to reperfusion. Values are mean±SD. Intracellular calcium was measured with fluorescent imaging, using Fluo-4. […]

[4] = Oxiselect Total Antioxidant Capacity Assay in rat serum (1-9%) in Tris Buffer; details: 0.0625, 0.125, 0.3125 and 0.625 mM, averaged
Description: (§1) FIGS. 16a and 16b indicate that the antioxidant capacities of γ-Glu-Cys and γ-Glu-D-Cys are the same using an in vitro assay. Antioxidant capacities were measured with the Oxiselect Total Antioxidant Capacity Assay Kit, using uric acid as a standard. […] Values are mean±SE. N=3 separate experiments for the 0.78, 1.56, and 3.13 mM concentrations. N=2 separate experiments for the 0.39 mM concentration. *P=0.047.

in vitro = in vitro ADME; details: rat
Description: Separate peaks representing the intact peptide and its metabolites are plotted as a function of time. The area under the curve for selected peaks may be measured and compared to appropriate standards to quantify the concentration of γ-Glu-Cys and its metabolites.
Loss of γ-Glu-Cys from the incubation medium, and the appearance of Cys and oxidized γ-Glu-Cys were quantified using HPLC to measure degradation, hydrolysis, and oxidation respectively. The ½-time for degradation of γ-Glu-Cys is 11.3±1.2 mins. Values are mean±SD. N=3 separate experiments.
Loss of γ-Glu-D-Cys from the incubation medium, and the appearance of D-Cys and oxidized γ-Glu-D-Cys were quantified using HPLC to measure degradation, hydrolysis, and oxidation respectively. Values are mean±SD. N=3 separate experiments.
Comparing the initial rates of degradation confirmed that γ-Glu-D-Cys is degraded more slowly (0.12±0.02 vs 0.22±0.02 mM/min, P=0.006). Values are mean±SD. N=3 separate experiments.
Values are mean±SD. N=3 separate experiments. * indicates significant difference at P<0.05.
As a measure of stability, the initial velocities of degradation for γ-Glu-Cys and γ-Glu-D-Cys were compared and found to be 0.22±0.03 vs. 0.12±0.02 (mM/min), respectively.
FIG. 11 is a graph showing the temporal comparison of degradation, oxidation and hydrolysis of γ-Glu-Cys. FIG. 12 is a graph showing the temporal comparison of degradation, oxidation, and hydrolysis of the analog γ-Glu-D-Cys. FIG. 13 is a graph comparing the degradation of γ-Glu-Cys and γ-Glu-D-Cys, as measured by the loss of intact peptide as a function of time of incubation. FIG. 14 is a graph comparing the hydrolysis of γ-Glu-Cys and γ-Glu-D-Cys, by appearance of cysteine and D-cysteine respectively, as a function of time. Mean±SE; * indicates significant difference at P<0.05. FIG. 15 is a graph comparing the oxidation of γ-Glu-Cys and γ-Glu-D-Cys, by appearance of oxidized γ-Glu-Cys and oxidized γ-Glu-D-Cys respectively, as a function of time. Mean±SE. * indicates P<0.05.

[5] = Oxiselect Total Antioxidant Capacity Assay in human plasma (90-99%)
Description: as §1

Human red blood cells = test: Spontaneous hemolysis of human red blood cells (hemoglobin release at 540 nm); format: cell-based; details: 37° C.; for difference in cytoprotective effect, γ-Glu-Cys vs γ-Glu-D-Cys: 1 mM each; for difference in cytoprotective effect, γ-Glu-Cys vs γ-Glu-D-Cys / toxicity (increase of hemolysis): 190 minutes; for spontaneous hemolysis / toxicity (increase of hemolysis): 1 mM; for spontaneous hemolysis: 5% red blood cells, phosphate buffer pH 7.4, 190 minutes
Description: Human red blood cells (5%) were incubated in isotonic phosphate buffer, pH 7.4 for 190 minutes at 37° C. in the presence or absence of γ-Glu-Cys and γ-Glu-D-Cys, and spontaneous hemolysis was quantified by measuring hemoglobin release spectrophotometrically at 540 nm. […] Values are mean±SE for 4 observations.

[6] = tested on: cultured blood-brain barrier endothelial cells; test: Lactate dehydrogenase (LDH) release from cultured blood-brain barrier endothelial cells under ischemia and reperfusion; format: cell-based, bovine; details: 1 mM; ischemia 1.5 hrs, reperfusion 3.0 hrs; P<0.05
Source text: FIG. 7 is a bar graph of data showing that the antioxidant gamma-glutamyl cysteine (γ-Glu-Cys) inhibits cell damage to cerebral capillary endothelial cells cultured under conditions of ischemia and reperfusion.
Cultured blood-brain barrier cells can be used as an in vitro cellular model to confirm that Na/Ca exchange may operate in the reverse direction under conditions simulating reperfusion, following transient ischemia. Cerebral capillary endothelial cells are isolated from bovine brain by the method of Meresse et al. (42), or purchased from Cell Systems Corporation (Kirkland, Wash.). Cells are grown and maintained (up to passage 5) on collagen type I- and fibronectin-coated tissue culture flasks in Eagle's minimal essential medium supplemented with 10% fetal bovine serum (54, 62). To form a polarized endothelium, cells are seeded on cluster plate inserts and incubated in the presence of an astrocyte conditioned medium supplemented with cAMP, as previously described (4, 54). […]
Cultured blood-brain barrier endothelial cells were incubated under conditions of ischemia (1.5 hours) followed by reperfusion (3.0 hours), in the presence and absence of γ-glutamyl cysteine (γ-Glu-Cys). Cellular damage was detected by measuring release of lactate dehydrogenase (LDH) into the incubation medium, following treatment. […]

[7] = 0.39 mM in human plasma (90-99%), N=2, P=0.047
[8] = 0.78, 1.56, and 3.13 mM in human plasma (90-99%), N=3

Row | initial rate (velocity) of degradation (in vitro; 6.25 mM) | half-life at 6.25 mM (in vitro; serum) | Compound | rise in intracellular sodium observed during reperfusion [1] | increase in caspase 3 activity [2] | rise in intracellular calcium observed during reperfusion [3] | antioxidant capacity (uric acid equivalents), γ-Glu-Cys vs γ-Glu-D-Cys [4] | antioxidant capacity, γ-Glu-Cys vs γ-Glu-D-Cys [5, 7] | antioxidant capacity, γ-Glu-Cys vs γ-Glu-D-Cys [5, 8] | difference in cytoprotective effect, γ-Glu-Cys vs γ-Glu-D-Cys (Human red blood cells) | spontaneous hemolysis (Human red blood cells) | toxicity (increase of hemolysis) (Human red blood cells) | LDH release (cellular damage) [6] | intactness in serum for 1 minute (in vitro; 1 min, 6.25 mM)
1 | – | – | CN(C)c1nc(N)c(C(=O)N=C(N)N)nc1Cl [dimethylamiloride] | prevented; also recorded: inhibits the rise in intracellular sodium | inhibited | prevented; also recorded: inhibits the rise in intracellular calcium | – | – | – | – | – | – | – | –
2 | 0.12 ± 0.02 mM/min | – | N[C@@H](CCC(=O)N[C@H](CS)C(=O)O)C(=O)O [γ-Glu-D-Cys, γ-glutamyl-D-cysteine] | – | – | – | not to be significantly different from each other | marginal difference | a significant difference was not detected | no significant difference in their cytoprotective effect | significantly inhibit spontaneous hemolysis | not toxic under the experimental conditions | – | –
3 | – | 11.3 ± 1.2 min | N[C@@H](CCC(=O)N[C@@H](CS)C(=O)O)C(=O)O [γ-Glu-Cys, γ-glutamyl cysteine] | – | – | – | not to be significantly different from each other | marginal difference | a significant difference was not detected | no significant difference in their cytoprotective effect | significantly inhibit spontaneous hemolysis | not toxic under the experimental conditions | reduced LDH release; also recorded: cellular damage was significantly reduced | remains primarily intact for 1 minute in serum

Reference: patent publication US9532961B2, “Method and kit for administering γ-glutamyl-D-cysteine for the prevention of reperfusion injury following ischemic stroke” (Rosalind Franklin University of Medicine and Science, priority 2005, dated 2017)
